According to US9532947B2, “Formulation for oral transmucosal administration of analgesic and/or antispasmodic molecules” (priority 2009, dated 2017):

Experiments:
[1] = Complete dissolution of active principle in approximately 40° ethanol (dissolution coefficient); format: physicochemical
Excerpt: The expression “stable and completely dissolved state” refers to a solution state rendering the active principle in the molecular and weakly ionized state in its solution medium, this solution state preventing any possibility of inopportune recrystallization. This stable and completely dissolved state may be monitored immediately on use of the formulation of the invention by evaluating the visual appearance of the solution obtained (measurement of the degree of limpidity), then at the level of the filtration residues (appearance or non-appearance of crystals), and finally in the medium-term and long-term during stability tracking tests at varying temperatures and relative humidities.
By way of illustration, the dissolution coefficient of phloroglucinol in ethanol makes it possible to obtain complete dissolution of said active principle at the rate of 20 milligrams (mg) of phloroglucinol in 0.75 mL of approximately 40° ethanol.
Similarly, the coefficient of dissolution of tiemonium methylsulfate in ethanol makes it possible to obtain complete dissolution of said active principle at the rate of 10 mg of tiemonium in 0.75 mL of approximately 40° ethanol. The coefficient of dissolution of nefopam in ethanol makes it possible to obtain complete dissolution of said active principle at the rate of 20 mg of nefopam in 1 mL of approximately 40° ethanol.

[2] = oral/digestive route, cited from earlier work; for fraction of the orally administered dose that is truly bioavailable (residual part reaching the smooth muscular membranes): coated pill or ODT form, on average at best

complete dissolution of active principle at the rate of [1]	SMILES	truly bioavailable dose of active principle resorbed by the digestive tract ([2]; all three main metabolites have no pharmacological activity)	fraction of the orally administered dose that is truly bioavailable (residual part reaching the smooth muscular membranes) [2]
20 mg in 1 mL	CN1CCOC(c2ccccc2)c2ccccc2C1 (stereo not drawn) [nefopam]	virtually nil	
20 mg in 0.75 mL	Oc1cc(O)cc(O)c1 [phloroglucinol]		40% to 50
10 mg in 0.75 mL	COS(=O)(=O)[O-].C[N+]1(CCC(O)(c2ccccc2)c2cccs2)CCOCC1 (stereo not drawn) [tiemonium, tiemonium methylsulfate]		10% to 15
